# Assay results as given in publication PMC5218480 (PLoS ONE, 2017).
# Tested on: MV-4-11 cells
# Assay: Gene expression microarray analysis (Affymetrix PrimeView) and GSEA
# Format: cell-based, human
# Design: RFU PODN (11730768_x_at) / Fold change /veh PODN (11730768_x_at) / RFU LINC00158 (11744669_a_at) / Fold change /veh LINC00158 (11744669_a_at) / RFU DUSP10 (11751237_a_at) / Fold change /veh DUSP10 (11751237_a_at) / RFU ID3 (11757404_x_at) / Fold change /veh ID3 (11757404_x_at) / RFU PLEKHG5 (11737974_s_at) / Fold change /veh PLEKHG5 (11737974_s_at) / RFU LRRC4B (11730491_at) / Fold change /veh LRRC4B (11730491_at) / RFU GIMAP4 (11747438_a_at) / Fold change /veh GIMAP4 (11747438_a_at) / RFU KRT8 (11758183_x_at) / Fold change /veh KRT8 (11758183_x_at) / RFU CNN1 (11734310_a_at) / Fold change /veh CNN1 (11734310_a_at) / RFU VPS37D (11726825_at) / Fold change /veh VPS37D (11726825_at) / RFU C10orf10 (11716522_x_at) / Fold change /veh C10orf10 (11716522_x_at) / RFU KIR2DL2 /// KIR2DL4 /// KIR2DL5A /// KIR2DL5B /// KIR2DS1 /// KIR2DS2 /// KIR2DS3 /// KIR2DS4 /// KIR3DL3 /// KIR3DL3 /// KIR3DS1 (11738374_at) / Fold change /veh KIR2DL2 /// KIR2DL4 /// KIR2DL5A /// KIR2DL5B /// KIR2DS1 /// KIR2DS2 /// KIR2DS3 /// KIR2DS4 /// KIR3DL3 /// KIR3DL3 /// KIR3DS1 (11738374_at) / RFU C1QL1 (11718748_at) / Fold change /veh C1QL1 (11718748_at) / RFU TMPRSS4 (11747572_a_at) / Fold change /veh TMPRSS4 (11747572_a_at) / RFU HAMP (11756126_x_at) / Fold change /veh HAMP (11756126_x_at) / RFU RNFT2 (11725882_a_at) / Fold change /veh RNFT2 (11725882_a_at) / RFU NR4A2 (11747474_a_at) / Fold change /veh NR4A2 (11747474_a_at) / RFU ABCC12 (11746883_a_at) / Fold change /veh ABCC12 (11746883_a_at) / RFU TMEM136 (11760407_x_at) / Fold change /veh TMEM136 (11760407_x_at) / RFU CLDN22 /// WWC2 (11732394_at) / Fold change /veh CLDN22 /// WWC2 (11732394_at) / RFU HLA-DPB1 (11760878_x_at) / Fold change /veh HLA-DPB1 (11760878_x_at) / RFU SPINT1 (11716480_a_at) / Fold change /veh SPINT1 (11716480_a_at) / RFU GAP43 (11754022_s_at) / Fold change /veh GAP43 (11754022_s_at) / RFU A4GNT (11735810_at) / Fold change /veh A4GNT (11735810_at) / RFU PRB3 (11715151_x_at) / Fold change /veh PRB3 (11715151_x_at) / RFU TUBB4B (11761932_at) / Fold change /veh TUBB4B (11761932_at) / RFU CAPN14 (11732068_a_at) / Fold change /veh CAPN14 (11732068_a_at) / RFU TMCC2 (11721928_a_at) / Fold change /veh TMCC2 (11721928_a_at) / RFU IRGQ (11745062_a_at) / Fold change /veh IRGQ (11745062_a_at) / RFU FAM174B (11720279_a_at) / Fold change /veh FAM174B (11720279_a_at) / RFU TMPRSS4 (11748680_a_at) / Fold change /veh TMPRSS4 (11748680_a_at) / RFU FAM212B (11763350_a_at) / Fold change /veh FAM212B (11763350_a_at) / RFU PLEKHG5 (11743358_a_at) / Fold change /veh PLEKHG5 (11743358_a_at) / RFU ZSCAN30 (11745921_a_at) / Fold change /veh ZSCAN30 (11745921_a_at) / RFU CMKLR1 (11741424_a_at) / Fold change /veh CMKLR1 (11741424_a_at) / RFU LOC101060620 /// MAPK8IP1 (11723275_at) / Fold change /veh LOC101060620 /// MAPK8IP1 (11723275_at) / RFU SPTSSB (11747773_x_at) / Fold change /veh SPTSSB (11747773_x_at) / RFU PRSS12 (11739890_at) / Fold change /veh PRSS12 (11739890_at) / RFU BIN1 (11741810_x_at) / Fold change /veh BIN1 (11741810_x_at) / RFU WNT11 (11732464_a_at) / Fold change /veh WNT11 (11732464_a_at) / RFU C10orf10 (11716521_a_at) / Fold change /veh C10orf10 (11716521_a_at) / RFU C5orf56 (11738089_at) / Fold change /veh C5orf56 (11738089_at) / RFU CYB561 (11721691_x_at) / Fold change /veh CYB561 (11721691_x_at) / RFU ANKRD19P (11752326_a_at) / Fold change /veh ANKRD19P (11752326_a_at) / RFU OR2T12 /// OR2T33 /// OR2T8 (11738714_s_at) / Fold change /veh OR2T12 /// OR2T33 /// OR2T8 (11738714_s_at) / RFU VCAN (11748164_a_at) / Fold change /veh VCAN (11748164_a_at) / RFU JSRP1 (11732532_at) / Fold change /veh JSRP1 (11732532_at) / RFU KRTAP10-11 (11738290_x_at) / Fold change /veh KRTAP10-11 (11738290_x_at) / RFU MYO3A (11730013_a_at) / Fold change /veh MYO3A (11730013_a_at) / RFU EBF3 (11725865_a_at) / Fold change /veh EBF3 (11725865_a_at) / RFU CAMK2N1 (11719241_x_at) / Fold change /veh CAMK2N1 (11719241_x_at) / RFU C5orf56 (11738088_a_at) / Fold change /veh C5orf56 (11738088_a_at) / RFU OLFML3 (11715873_a_at) / Fold change /veh OLFML3 (11715873_a_at) / RFU LOC100653217 /// NTM (11731650_a_at) / Fold change /veh LOC100653217 /// NTM (11731650_a_at) / RFU MAPK11 (11762145_a_at) / Fold change /veh MAPK11 (11762145_a_at) / RFU FIZ1 (11724087_x_at) / Fold change /veh FIZ1 (11724087_x_at) / RFU OASL (11726364_x_at) / Fold change /veh OASL (11726364_x_at) / RFU SOX15 (11748057_x_at) / Fold change /veh SOX15 (11748057_x_at) / RFU CD79A (11719716_a_at) / Fold change /veh CD79A (11719716_a_at) / RFU HIST1H1D (11736915_at) / Fold change /veh HIST1H1D (11736915_at) / RFU CASKIN2 (11723855_a_at) / Fold change /veh CASKIN2 (11723855_a_at) / RFU LOC730098 (11760151_x_at) / Fold change /veh LOC730098 (11760151_x_at) / RFU OR4N2 (11742367_at) / Fold change /veh OR4N2 (11742367_at) / RFU PRRT2 (11749266_a_at) / Fold change /veh PRRT2 (11749266_a_at) / RFU SNX32 (11753110_a_at) / Fold change /veh SNX32 (11753110_a_at) / RFU CDHR5 (11726645_a_at) / Fold change /veh CDHR5 (11726645_a_at) / RFU RCAN1 (11760418_a_at) / Fold change /veh RCAN1 (11760418_a_at) / RFU FAM167A (11723789_a_at) / Fold change /veh FAM167A (11723789_a_at) / RFU FAM26E (11764081_at) / Fold change /veh FAM26E (11764081_at) / RFU ISYNA1 (11749810_s_at) / Fold change /veh ISYNA1 (11749810_s_at) / RFU ACY1 (11761880_at) / Fold change /veh ACY1 (11761880_at) / RFU 11764098_at / Fold change /veh 11764098_at / RFU SAMD14 (11745864_x_at) / Fold change /veh SAMD14 (11745864_x_at) / RFU NPB (11741838_a_at) / Fold change /veh NPB (11741838_a_at) / RFU TMPRSS6 (11731388_a_at) / Fold change /veh TMPRSS6 (11731388_a_at) / RFU KRTAP10-2 (11738614_at) / Fold change /veh KRTAP10-2 (11738614_at) / RFU ARHGAP8 /// PRR5-ARHGAP8 (11727945_x_at) / Fold change /veh ARHGAP8 /// PRR5-ARHGAP8 (11727945_x_at) / RFU KRTAP5-7 /// NADSYN1 (11734609_at) / Fold change /veh KRTAP5-7 /// NADSYN1 (11734609_at) / RFU RASL12 (11751679_a_at) / Fold change /veh RASL12 (11751679_a_at) / RFU CDKN2B (11736163_a_at) / Fold change /veh CDKN2B (11736163_a_at) / RFU PRF1 (11729649_at) / Fold change /veh PRF1 (11729649_at) / RFU, ZNF638 /// ZNF638-IT1 / Fold change vs veh, ZNF638 /// ZNF638-IT1 / RFU, PANK3 / Fold change vs veh, PANK3 / RFU, SH3YL1 / Fold change vs veh, SH3YL1 / RFU, ZEB2 / Fold change vs veh, ZEB2 / RFU, NRIP1 / Fold change vs veh, NRIP1 / RFU, PTTG1IP / Fold change vs veh, PTTG1IP / RFU, CAPN2 / Fold change vs veh, CAPN2 / RFU, MED14 / Fold change vs veh, MED14 / RFU, SNORA58 / Fold change vs veh, SNORA58 / RFU, C1orf63 / Fold change vs veh, C1orf63 / RFU, LRRFIP1 / Fold change vs veh, LRRFIP1 / RFU, NDUFAF7 / Fold change vs veh, NDUFAF7 / RFU, SLC12A2 / Fold change vs veh, SLC12A2 / RFU, IBTK / Fold change vs veh, IBTK / RFU, ESF1 / Fold change vs veh, ESF1 / Fold change vs veh, TMEM50B / RFU, TAOK1 / Fold change vs veh, TAOK1 / RFU, ACBD3 / Fold change vs veh, ACBD3 / RFU, TMA16 / Fold change vs veh, TMA16 / RFU, RWDD3 / Fold change vs veh, RWDD3 / RFU, BCAT1 / Fold change vs veh, BCAT1 / RFU, EDEM3 / Fold change vs veh, EDEM3 / RFU, TMEM33 / Fold change vs veh, TMEM33 / RFU, WDR75 / Fold change vs veh, WDR75 / RFU, AHCTF1 / Fold change vs veh, AHCTF1 / RFU, TFRC / Fold change vs veh, TFRC / RFU, ZDHHC17 / Fold change vs veh, ZDHHC17 / RFU, NOM1 / Fold change vs veh, NOM1 / RFU, ARL8B / Fold change vs veh, ARL8B / RFU, ZBTB11 / Fold change vs veh, ZBTB11 / RFU, TAMM41 / Fold change vs veh, TAMM41 / RFU, KIAA1704 /// LOC100996395 / Fold change vs veh, KIAA1704 /// LOC100996395 / RFU, ING1 / Fold change vs veh, ING1 / RFU, TRMT61B / Fold change vs veh, TRMT61B / RFU, FUBP3 / Fold change vs veh, FUBP3 / RFU, TP53 / Fold change vs veh, TP53 / RFU, TNKS2 / Fold change vs veh, TNKS2 / RFU, ZFP14 / Fold change vs veh, ZFP14 / RFU, ACTR2 / Fold change vs veh, ACTR2 / RFU, PPP3R1 / Fold change vs veh, PPP3R1 / RFU, PIK3R1 / Fold change vs veh, PIK3R1 / RFU, HNRNPA1 / Fold change vs veh, HNRNPA1 / RFU, RNF170 / Fold change vs veh, RNF170 / RFU, ZNF28 / Fold change vs veh, ZNF28 / RFU, RNGTT / Fold change vs veh, RNGTT / RFU, OGT / Fold change vs veh, OGT / RFU, BRD1 / Fold change vs veh, BRD1 / RFU, MARS / Fold change vs veh, MARS / RFU, ZNF655 / Fold change vs veh, ZNF655 / RFU, FAHD1 / Fold change vs veh, FAHD1 / RFU, BDP1 / Fold change vs veh, BDP1 / RFU, LRRCC1 / Fold change vs veh, LRRCC1 / RFU, ARID1A / Fold change vs veh, ARID1A / RFU, ZNF146 / Fold change vs veh, ZNF146 / RFU, ZNF330 / Fold change vs veh, ZNF330 / RFU, GPN3 / Fold change vs veh, GPN3 / RFU, C9orf123 / Fold change vs veh, C9orf123 / RFU, N4BP2L2 / Fold change vs veh, N4BP2L2 / RFU, ARFIP1 / Fold change vs veh, ARFIP1 / RFU, FAM179B / Fold change vs veh, FAM179B / RFU, BCL10 / Fold change vs veh, BCL10 / RFU, UHRF1BP1L / Fold change vs veh, UHRF1BP1L / RFU, BET1 / Fold change vs veh, BET1 / RFU, CNOT2 / Fold change vs veh, CNOT2 / RFU, ZNF268 / Fold change vs veh, ZNF268 / Fold change vs veh, ZNF507 / RFU, DGCR2 / Fold change vs veh, DGCR2 / RFU, WDSUB1 / Fold change vs veh, WDSUB1 / Fold change vs veh, HSP90B1 /// MIR3652 / RFU, ADSS / Fold change vs veh, ADSS / RFU, GK / Fold change vs veh, GK / RFU, ZNF148 / Fold change vs veh, ZNF148 / RFU, TAF9 / Fold change vs veh, TAF9 / RFU, SLC1A5 / Fold change vs veh, SLC1A5 / RFU, SLMO2 / Fold change vs veh, SLMO2 / RFU, ABCC4 / Fold change vs veh, ABCC4 / RFU, LOC101060439 /// RAP1B / Fold change vs veh, LOC101060439 /// RAP1B / RFU, RFX7 / Fold change vs veh, RFX7 / RFU, GTPBP10 / Fold change vs veh, GTPBP10 / RFU, CNEP1R1 / Fold change vs veh, CNEP1R1 / RFU, BIVM-ERCC5 /// ERCC5 / Fold change vs veh, BIVM-ERCC5 /// ERCC5 / RFU, ILF3 / Fold change vs veh, ILF3 / RFU 11762660_at / Fold change /veh 11762660_at / RFU VCAN (11757783_s_at) / Fold change /veh VCAN (11757783_s_at) / RFU DDX43 (11728927_at) / Fold change /veh DDX43 (11728927_at) / RFU KRT8 (11758188_x_at) / Fold change /veh KRT8 (11758188_x_at) / RFU NKD1 (11759106_at) / Fold change /veh NKD1 (11759106_at) / RFU SRD5A1 (11742802_a_at) / Fold change /veh SRD5A1 (11742802_a_at) / RFU TPSAB1 /// TPSB2 (11721975_s_at) / Fold change /veh TPSAB1 /// TPSB2 (11721975_s_at) / RFU GSTM3 (11746129_a_at) / Fold change /veh GSTM3 (11746129_a_at) / RFU IL23R (11737362_x_at) / Fold change /veh IL23R (11737362_x_at) / RFU TMEM51 (11727254_a_at) / Fold change /veh TMEM51 (11727254_a_at) / RFU PIWIL2 (11732686_x_at) / Fold change /veh PIWIL2 (11732686_x_at) / RFU ORM1 (11744905_x_at) / Fold change /veh ORM1 (11744905_x_at) / RFU CCDC152 (11743942_at) / Fold change /veh CCDC152 (11743942_at) / RFU ECM1 (11717891_a_at) / Fold change /veh ECM1 (11717891_a_at) / RFU IL23R (11748794_a_at) / Fold change /veh IL23R (11748794_a_at) / RFU TNFAIP8L3 (11732012_x_at) / Fold change /veh TNFAIP8L3 (11732012_x_at) / RFU MBOAT4 (11741988_at) / Fold change /veh MBOAT4 (11741988_at) / RFU 11764193_at / Fold change /veh 11764193_at / RFU TMEM53 (11763286_at) / Fold change /veh TMEM53 (11763286_at) / RFU MAGEB2 (11727129_at) / Fold change /veh MAGEB2 (11727129_at) / RFU TMEM200A (11744735_a_at) / Fold change /veh TMEM200A (11744735_a_at) / RFU CCDC152 (11751479_a_at) / Fold change /veh CCDC152 (11751479_a_at) / RFU FAM211A (11726209_a_at) / Fold change /veh FAM211A (11726209_a_at) / RFU RGS16 (11746705_a_at) / Fold change /veh RGS16 (11746705_a_at) / RFU VCAN (11755009_s_at) / Fold change /veh VCAN (11755009_s_at) / RFU RHOB (11743442_s_at) / Fold change /veh RHOB (11743442_s_at) / RFU RGS16 (11720943_a_at) / Fold change /veh RGS16 (11720943_a_at) / RFU RGS16 (11720944_at) / Fold change /veh RGS16 (11720944_at) / RFU, VPS4B / Fold change vs veh, VPS4B / RFU, CREB1 / Fold change vs veh, CREB1 / RFU, DNAJC13 / Fold change vs veh, DNAJC13 / RFU, GNAQ / Fold change vs veh, GNAQ / RFU, CDK5R1 / Fold change vs veh, CDK5R1 / RFU, ZRANB3 / Fold change vs veh, ZRANB3 / RFU, CUL4A / Fold change vs veh, CUL4A / RFU, CCNY / Fold change vs veh, CCNY / RFU, UFL1 / Fold change vs veh, UFL1 / RFU, COG3 / Fold change vs veh, COG3 / RFU, DIAPH2 / Fold change vs veh, DIAPH2 / RFU, SKA2 / Fold change vs veh, SKA2 / RFU, AFF3 / Fold change vs veh, AFF3 / RFU, LMF1 / Fold change vs veh, LMF1 / RFU, IPO11 / Fold change vs veh, IPO11 / RFU, DFFB / Fold change vs veh, DFFB / RFU, FOXP1 / Fold change vs veh, FOXP1 / RFU, CARD8 / Fold change vs veh, CARD8 / RFU, STRN3 / Fold change vs veh, STRN3 / RFU, ADK / Fold change vs veh, ADK / RFU, RASSF2 / Fold change vs veh, RASSF2 / RFU, WIPF1 / Fold change vs veh, WIPF1 / RFU, LARP1B / Fold change vs veh, LARP1B / RFU, RASA1 / Fold change vs veh, RASA1 / RFU, RB1 / Fold change vs veh, RB1 / RFU, PPFIA1 / Fold change vs veh, PPFIA1 / RFU, MAT2A / Fold change vs veh, MAT2A / RFU, CCT5 / Fold change vs veh, CCT5 / RFU, WDR92 / Fold change vs veh, WDR92 / RFU, CUX1 / Fold change vs veh, CUX1 / RFU, TTC7A / Fold change vs veh, TTC7A / RFU, TMEM135 / Fold change vs veh, TMEM135 / RFU, DEPTOR / Fold change vs veh, DEPTOR / RFU, CPM / Fold change vs veh, CPM / RFU, DNAJB6 / Fold change vs veh, DNAJB6 / RFU, CACNA2D3 / Fold change vs veh, CACNA2D3 / RFU, DTX4 / Fold change vs veh, DTX4 / RFU, TFCP2 / Fold change vs veh, TFCP2 / RFU, GMCL1 /// GMCL1P1 / Fold change vs veh, GMCL1 /// GMCL1P1 / RFU, AEBP2 / Fold change vs veh, AEBP2 / RFU, SNHG1 /// SNORD22 /// SNORD25 /// SNORD26 /// SNORD27 /// SNORD28 /// SNORD29 /// SNORD31 / Fold change vs veh, SNHG1 /// SNORD22 /// SNORD25 /// SNORD26 /// SNORD27 /// SNORD28 /// SNORD29 /// SNORD31 / Fold change (Aza/veh), C12orf56 (ProbeSet 11735607_a_at) / Fold change (ACY-1035/veh), C12orf56 (ProbeSet 11735607_a_at) / Fold change (Aza/veh), FGFR1OP (ProbeSet 11751329_s_at) / Fold change (ACY-1035/veh), FGFR1OP (ProbeSet 11751329_s_at) / Fold change (Aza/veh), VPS36 (ProbeSet 11739960_a_at) / Fold change (ACY-1035/veh), VPS36 (ProbeSet 11739960_a_at) / RFU SYPL1 (11715823_x_at) / Fold change /veh SYPL1 (11715823_x_at) / RFU IGFBP7 (11715501_s_at) / Fold change /veh IGFBP7 (11715501_s_at) / RFU REEP3 (11722064_at) / Fold change /veh REEP3 (11722064_at) / RFU IGLL1 (11728026_x_at) / Fold change /veh IGLL1 (11728026_x_at): dose or concentration left out as unconfirmed
# Settings: ProbeSet 11717876_a_at; LIST D
smiles,measurement,value
Nc1ccc(-c2cccs2)cc1NC(=O)c1ccc2c(c1)cc(C1CC1)n2CCN1CCOCC1 [ACY-1035],"RFU, PPFIA1",30.94 RFU
